Test results from ChEMBL document CHEMBL4823287, “Design and synthesis of novel 5-alkynyl pyrimidine nucleosides derivatives: Influence of C-6-substituent on antituberculosis activity” (2021).
Converted amounts (≈) assume the structure as drawn.

What was measured:
Assay type in all cases: functional
[1] = system: Mycobacterium tuberculosis; assay: Antimycobacterial activity against Mycobacterium tuberculosis H37Ra assessed as inhibition of bacterial growth at 50 ug/ml measured by microplate alamar blue assay
[2] = system: Mycobacterium tuberculosis; assay: Antimycobacterial activity against Mycobacterium tuberculosis H37Ra assessed as inhibition of bacterial growth at 1 to 5 ug/ml measured by microplate alamar blue assay; conditions: dose 1-5 µg/ml; at 1 to 5 µg/mL
[3] = system: Mycobacterium tuberculosis; assay: Antimycobacterial activity against Mycobacterium tuberculosis H37Ra assessed as inhibition of bacterial growth at 25 ug/ml measured by microplate alamar blue assay
[4] = system: Mycobacterium tuberculosis; assay: Antimycobacterial activity against Mycobacterium tuberculosis H37Ra assessed as inhibition of bacterial growth measured by microplate alamar blue assay
[5] = system: Mycobacterium tuberculosis; assay: Antimycobacterial activity against Mycobacterium tuberculosis H37Ra assessed as inhibition of bacterial growth at 10 ug/ml measured by microplate alamar blue assay
[6] = system: Mycobacterium tuberculosis; assay: Antimycobacterial activity against Mycobacterium tuberculosis H37Ra assessed as inhibition of bacterial growth at 5 ug/ml measured by microplate alamar blue assay
[7] = system: Mycobacterium tuberculosis; assay: Antimycobacterial activity against Mycobacterium tuberculosis H37Ra assessed as inhibition of bacterial growth at 100 ug/ml measured by microplate alamar blue assay
[8] = system: Mycobacterium tuberculosis; assay: Antimycobacterial activity against Mycobacterium tuberculosis H37Ra assessed as inhibition of bacterial growth at 1 ug/ml measured by microplate alamar blue assay

Structure (SMILES) | inhibition at 50 µg/mL [1] [%] | inhibition (percent inhibition of bacterial growth) [2] [%] | inhibition at 25 µg/mL [3] [%] | MIC50 [4] [µg/mL] | inhibition at 10 µg/mL [5] [%] | inhibition at 5 µg/mL [6] [%] | inhibition at 100 µg/mL [7] [%] | inhibition at 1 µg/mL [8] [%]
CCCCC#Cc1c(C)n([C@@H]2O[C@H](CO)[C@@H](O)[C@H]2O)c(=O)[nH]c1=O | 100 | 10 | 60 | 17.7 (≈ 52.3 µM) |  |  |  | 
N[C@@H]1CONC1=O [CYCLOSERINE] |  |  |  | 5.2 (≈ 50.9 µM) | 67 | 50 |  | 
Cc1c(C#Cc2ccccc2)c(=O)[nH]c(=O)n1[C@@H]1O[C@H](CO)[C@@H](O)[C@H]1O | 75 | 50 |  | 2.6 (≈ 7.26 µM) | 75 |  | 90 | 
CO[C@H]1/C=C/O[C@@]2(C)Oc3c(C)c(O)c4c(O)c(c(/C=N/N5CCN(C)CC5)c(O)c4c3C2=O)NC(=O)/C(C)=C\C=C\[C@H](C)[C@H](O)[C@@H](C)[C@@H](O)[C@@H](C)[C@H](OC(C)=O)[C@@H]1C [RIFAMPIN] |  |  |  | 0.7 (≈ 0.851 µM) |  |  |  | 100
CCCCCCC#Cc1c(C)n([C@@H]2O[C@H](CO)[C@@H](O)[C@H]2O)c(=O)[nH]c1=O | 70 |  |  | < 50 |  |  | 90 | 
CCCC#Cc1c(C)n([C@@H]2O[C@H](CO)[C@@H](O)[C@H]2O)c(=O)[nH]c1=O | 60 |  |  | < 50 | 0 |  | 90 | 
Cc1c(C#CC2CCCCC2)c(=O)[nH]c(=O)n1[C@@H]1O[C@H](CO)[C@@H](O)[C@H]1O | 100 | 10 | 60 | 14.1 (≈ 38.7 µM) |  |  |  | 
CCC#Cc1c(C)n([C@@H]2O[C@H](CO)[C@@H](O)[C@H]2O)c(=O)[nH]c1=O | 50 |  |  | 50 (≈ 161 µM) | 10 |  | 90 | 
NNC(=O)c1ccncc1 [ISONIAZID] |  |  |  | 0.8 (≈ 5.83 µM) |  |  |  | 100
Cc1c(C#CC(O)c2ccccc2)c(=O)[nH]c(=O)n1[C@@H]1O[C@H](CO)[C@@H](O)[C@H]1O (stereo partly specified) |  |  |  | 0.6 (≈ 1.54 µM) |  |  |  | 100
Cc1c(C#CCC(C)C)c(=O)[nH]c(=O)n1[C@@H]1O[C@H](CO)[C@@H](O)[C@H]1O | 100 | 10 | 60 | 18.1 (≈ 53.5 µM) |  |  |  | 
Cc1c(C#CC2CC2)c(=O)[nH]c(=O)n1[C@@H]1O[C@H](CO)[C@@H](O)[C@H]1O |  | 50 |  | 2.3 (≈ 7.14 µM) | 80 |  | 90 | 
CC#Cc1c(C)n([C@@H]2O[C@H](CO)[C@@H](O)[C@H]2O)c(=O)[nH]c1=O | 50 |  |  | 50 (≈ 169 µM) | 10 |  | 90 | 
Cc1c(C#C[Si](C)(C)C)c(=O)[nH]c(=O)n1[C@@H]1O[C@H](CO)[C@@H](O)[C@H]1O |  |  |  |  |  |  | 0 | 
